Measured values from EPA's ToxValDB 9.5.
“And” between values parts separate entries of the source, which are not always exact repeats. Equal values may be shown once.

What was measured:
[1] = system: Rattus norvegicus; details: for NOEL / LOEL: Hershberger, gavage; for LEL: uterotrophic, Active
[2] = system: Canidae; details: oral, Dog Other
[3] = system: Canidae; details: oral, M/F, Dog Other
[4] = system: Canidae; details: oral, Beagle; for NOEL: subchronic, duration: 90 days; for LOEL: duration: 14 months, Re-emergence of haemolytic anaemia
[5] = system: Rattus norvegicus; details: oral
[6] = system: Mus musculus; details: chronic; duration: 103 weeks; oral; gavage; M/F; B6C3F1; hepatic
[7] = system: Rattus norvegicus; details: chronic; duration: 2 years; oral; gavage; M/F; kidney pathology
[8] = system: Mus musculus; details: uterotrophic, duration: 3 days, Active; for LEL: injection, subcutaneous
[9] = system: Rattus norvegicus; details: repeat dose other; oral
[10] = chronic, Decreased body weight gain, altered serum chemistry parameters (decreased serum cholesterol, total protein, and serum albumin and globulin …
[11] = duration: 7 days, oral, Sprague-Dawley, active + Antiandrogenic + anti-androgenic + reduced SV and caudal epididymal wt / PPS delayed
[12] = duration: 10 days, oral, Wistar, active + Antiandrogenic + anti-androgenic + reduced SV and caudal epididymal wt / PPS delayed
[13] = chronic, duration: 2 years, diet, increased serum alkaline phosphatase and liver weight, and hepatic lesions
[14] = chronic, duration: 2 years, diet, increased hemosiderin deposition, serum alkaline phosphatase, and liver weight (females)
[15] = duration: 10 days, oral, Sprague-Dawley, active + Negative + Antiandrogenic + anti-androgenic + DP and LABC decreased in high dose
[16] = chronic, duration: 12 months, diet, increase in methemoglobin + Increased liver weights

O=C1c2ccccc2C(=O)N1SC(Cl)(Cl)Cl [Folpet] was tested, and the NOEL ([1]; duration: 10 days, oral, Sprague-Dawley, inactive + Negative + Negative + neither + decrease in LABC and epididymis at 400 and 800 / decrease in liver and body wt (8% at 200 / 14…) was 200 mg/kg-day, the NOEL ([2]; chronic, duration: 1 years, capsule, Blood: Altered chemistry + Whole body: Altered weight gain) was 10 mg/kg-day and the LEL [3, 10] was 60 mg/kg-day. For the same compound, the NOEL [3, 10] was 10 mg/kg-day.
CCC(=O)O.CCC(=O)O.O=C(Nc1cccc(C2=NCCN2)c1)Nc1cccc(C2=NCCN2)c1 [Imidocarb dipropionate] was tested, and the NOEL ([4]; capsule, M/F, Transient reducting in food intake & histopathology in the liver) was 5 mg/kg-day.
CC1=CC(=O)CC(C)(C)C1 [Isophorone] was tested, and the NOAEL ([5]; subchronic, duration: 90 days, diet, F, other) was 312 mg/kg-day, the LOAEL [6] was 179 mg/kg-day and the NOEL ([1]; duration: 10 days, oral, Sprague-Dawley, inactive + Negative + Negative + neither + increase age at PPS, decrease wt of SV, decrease testosterone at 800 / NS increase in liver wt …) was 200 mg/kg-day. It also gave an NOEL ([2]; subchronic, duration: 90 days, capsule, Kidney: Lesions) of 150 mg/kg-day, an NOEL ([3]; subchronic, duration: 90 days, diet, no effects) of 150 mg/kg-day and an LEL [7] of 250 mg/kg-day.
For O=C1C2(Cl)C3(Cl)C4(Cl)C(Cl)(Cl)C5(Cl)C3(Cl)C1(Cl)C5(Cl)C24Cl (stereo not drawn) [Kepone], the NOAEL ([5]; chronic, duration: 2 years, diet, M/F, Wistar, renal) was 0.089 mg/kg-day, the NOAEL ([5]; short-term, duration: 10 days, gavage, M, Fischer 344, neurological) was 1.25 mg/kg-day and the NOAEL ([5]; subchronic, duration: 90 days, diet, M, Sprague-Dawley, neurological, reproductive) was 0.26 mg/kg-day. For the same compound, the LEL ([1]; duration: 1 days, injection, subcutaneous) was 10 mg/kg-day, the LEL ([1]; duration: 2 days, injection, subcutaneous) was 0.2 mg/day and the LEL ([1]; duration: 3 days, injection, subcutaneous) was 15 mg/kg-day and 20 mg/kg-day and 30 mg/kg-day. The LEL [8] was 1 mg/kg-day, the LOAEL [9] was 0.4 mg/kg-day and the NOAEL [9] was 0.08 mg/kg-day.
With Cl.c1ccc([C@H]2CN3CCSC3=N2)cc1 [Levamisole hydrochloride] the LOEL ([4]; chronic, capsule) was 1.25 mg/kg-day and the LOEL ([4]; immunotoxicology, capsule) was 1.25 mg/kg-day.
In the case of CON(C)C(=O)Nc1ccc(Cl)c(Cl)c1 [Linuron], the LOEL [1, 11] is reported as 40 mg/kg-day and 100 mg/kg-day, the NOEL [1, 11] is reported as 20 mg/kg-day and the NOEL ([1]; duration: 10 days, oral, Sprague-Dawley, inactive + Negative + anti-androgenic + reduced SV and caudal epididymal wt / PPS delayed) is reported as 20 mg/kg-day. For the same compound, the LOEL [1, 12] was 40 mg/kg-day and 100 mg/kg-day, the NOEL [1, 12] was 20 mg/kg-day and 10 mg/kg-day and the NOEL ([1]; duration: 10 days, oral, Wistar, inactive + Negative + anti-androgenic + reduced SV and caudal epididymal wt / PPS delayed) was 20 mg/kg-day. For the same compound, the NOEL ([1]; duration: 10 days, oral, wistar, active + Antiandrogenic + anti-androgenic + reduced SV and caudal epididymal wt / PPS delayed) was 20 mg/kg-day and 30 mg/kg-day and 10 mg/kg-day, the LOAEL ([2]; chronic, duration: 2 years, diet, Blood: Hematological effects) was 0.625 mg/kg-day and the LEL ([3]; chronic, duration: 2 years, diet, abnormal blood pigment) was 0.625 mg/kg-day.
In the case of C#C[C@]1(O)CC[C@H]2[C@@H]3CCc4cc(OC)ccc4[C@H]3CC[C@@]21C [Mestranol], the LEL ([1]; duration: 3 days, injection, intraperitoneal) is reported as 0.001 mg/day, the LEL ([1]; duration: 3 days, oral) is reported as 0.01 mg/kg-day and the LEL ([1]; duration: 14 days, oral) is reported as 0.001 mg/day. The LEL [8] was 0.5 µg/0.1 mL and the “LEL (fractional dose of pill)” value ([8]; oral) was 0.001.
Work on CO/N=C1\C[C@]2(C[C@@H]3C[C@@H](C/C=C(\C)C[C@@H](C)/C=C/C=C4\CO[C@@H]5[C@H](O)C(C)=C[C@@H](C(=O)O3)[C@]45O)O2)O[C@H](/C(C)=C/C(C)C)[C@H]1C [Moxidectin] yielded an NOEL ([4]; diet, M/F, Decreased bodyweight & feed consumption) of 0.3 mg/kg-day.
Work on CC[C@@H](C(=O)O)[C@@H]1O[C@@H]([C@@H](C)[C@H](O)[C@H](C)C(=O)[C@H](CC)[C@H]2O[C@]3(C=C[C@@H](O)[C@]4(CC[C@@](C)([C@H]5CC[C@](O)(CC)[C@H](C)O5)O4)O3)[C@H](C)C[C@@H]2C)[C@@H](C)C[C@@H]1C [Narasin] yielded an NOAEL ([4]; chronic, duration: 1 years, capsule, M/F, Minimal to slight peripheral nerve changes & focal skeletal muscle degeneration) of 0.5 mg/kg-day.
Compound CCC(CC)Nc1c([N+](=O)[O-])cc(C)c(C)c1[N+](=O)[O-] [Pendimethalin] has an LEL ([1]; duration: 3 days, oral) of 300 mg/kg-day, an NOEL ([2]; chronic, duration: 2 years, capsule, Liver: Effects) of 12.5 mg/kg-day and an LEL [3, 13] of 50 mg/kg-day. It also gave an NOEL [3, 13] of 12.5 mg/kg-day.
Compound C#CC(C)(C)NC(=O)c1cc(Cl)cc(Cl)c1 [Propyzamide] has an NOEL ([1]; duration: 10 days, oral, Sprague-Dawley, active + Negative + Antiandrogenic + anti-androgenic + two studies / first one doses were high but effects observed on AST wt and delayed …) of 40 mg/kg-day, an NOEL ([2]; chronic, duration: 2 years, diet, None Observed) of 7.5 mg/kg-day and an NOEL ([3]; chronic, duration: 2 years, diet, no effects) of 7.5 mg/kg-day.
Work on CC(C)N(C(=O)SCC(Cl)=C(Cl)Cl)C(C)C [Tri-allate] yielded an NOAEL ([2]; chronic, duration: 24 months, diet, Liver: Effects + Spleen: Effects) of 1.27 mg/kg-day, an LOAEL [3, 14] of 4.25 mg/kg-day and an NOAEL [3, 14] of 1.27 mg/kg-day.
CCCN(CCC)c1c([N+](=O)[O-])cc(C(F)(F)F)cc1[N+](=O)[O-] [Trifluralin] was tested, and the LOEL [1, 15] was 250 mg/kg-day and 450 mg/kg-day, the NOEL [1, 15] was 75 mg/kg-day and 150 mg/kg-day and the NOEL ([2]; chronic, duration: 12 months, diet, Blood: Methemoglobinemia + Liver: Increased weight) was 0.75 mg/kg-day. It also gave an LEL [3, 16] of 3.75 mg/kg-day and an NOEL [3, 16] of 0.75 mg/kg-day.
